One test relates to rBAT. In words: HAT heavy chain rBAT on large-monocyte fraction of LPS-stimulated human PBMC, peak value by FACScan. In kind it is cell-based. How it is done: In the same manner as in 1) to 5) of Experimental Example 1, to human peripheral blood mononuclear cells, the test compound (6-2) (final concentration: 10 nM) or the test compound (7-3) (final concentration: 100 nM) was added at the same time when LPS (final concentration: 80 μg/ml) was added, followed by 6-day culture. Further, in the same manner as above, using rabbit anti-human 4F2hc polyclonal antibodies (see Biol Pharm Bull 30:415-422, 2007) as a primary antibody, the peak value of HAT expressed on the fraction of large-macrophages (larger than monocyte macrophages) in human PBMC was measured by FACScan using a commercially available cell fix/cell membrane infiltration kit (trade name: BD Cytofix/Cytoperm™ Kit, catalog No. 554714, BD Biosciences).
As a control, the one with no test-compound addition was used, and as a rabbit anti-human rBAT (related to b^0,+-type amino acid transporter) polyclonal antibody, the one obtained by coupling a synthesized peptide composed of an amino-terminal of human rBAT (MAEDKSKRDSIEMSMKGC (SEQ ID NO: 2)) and a carboxyl-terminal of mouse b^0,+AT (BAT1) (CHLQMLEWPEKDPE (SEQ ID NO: 3)) to a carrier KLH (keyhole-limpet hemocyanin), and immunizing a rabbit with it.

Test [1] deals with glomerular lesions; renal tubulointerstitial lesions. The note with it: International Publication WO 2004/024185 and 01/72730 pamphlets; cited from earlier work.
A further test deals with 4F2hc. As to the kind of experiment: 4F2hc on large-cell fraction of interferon γ-stimulated THP-1, peak value by FACScan. Type of test: cell-based, human. How it is done: The same procedures as in Experimental Example 2 were taken except the following conditions: human leukemia culture cell line THP-1 was used instead of the human peripheral blood mononuclear cells; the final addition concentration of the test compound (6-2) was set to 100 nM; fetal bovine serum was used instead of the human AB serum; and human recombinant interferon γ (PHP050, Serotec) (final concentration: 100 ng/ml) was used instead of LPS. Also, using rabbit anti-human 4F2hc polyclonal antibodies (see Biol Pharm Bull 30: 415-422, 2007) as the primary antibody, the peak value of HAT expressed on the fraction of large-cells in human leukemia culture cell strain THP-1, compared with those not stimulated with LPS, was measured. As a control, the one with no test-compound (DMSO alone) was used, and the rabbit anti-human rBAT polyclonal antibodies were obtained in the same manner as in Experimental Example 2.

Results on 1 compound are retold here after US20090041719A1, “Method for screening therapeutic agent for glomerular disorder” (priority 2006, published 2009).

As for `O=C1CCC(F)(C(=O)OCc2ccccc2)O1` (centres unmarked) [Compound (6-2)], the “Change in HAT expressed on large-monocyte fraction of human PBMC (peak value by FACScan), rBAT” value with rBAT (human PBMC + LPS 80 μg/ml, 6-day culture, test compound 10 nM, solvent control 37) is given as 40. Moreover, the “amount of rBAT (in words)” value in the test on rBAT (human PBMC + LPS, summary of Table 2) is “without any influence”. Besides, in test [1], the “known action on glomerular lesions” value was “selectively inhibit the glomerular lesions”. Further, the “Change in HAT expressed on large-cell fraction of THP-1 (peak value by FACScan), 4F2hc” value with 4F2hc (THP-1 + human recombinant interferon γ 100 ng/ml, test compound 100 nM, solvent control 16) was 10. Besides, the “amount of 4F2hc in the heavy chain of HAT (in words)” value with 4F2hc (THP-1 + interferon γ, summary of Table 4) was “selectively decreased”.
